According to patent US8962664B2, “Selective glycosidase inhibitors and uses thereof” (Simon Fraser University, priority 2006, dated 2015):
“Also recorded” adds a separate entry of the source.

Experiments:
[1] = tested on: tau phosphorylation and NFT formation; assay: Reduction of NFT formation in transgenic P301L JNPL3 mice; type: in vivo; conditions: oral, Group B NAG-Bt 100 then 1000 mg/kg/day; for protein O-GlcNAc modification in hippocampal brain sections: Group D NAG-AE 500 mg/kg/day weeks 16 to 32, anti-OGlcNAc staining; for tau phosphorylation and NFT formation in hippocampal brain sections: Group D NAG-AE 500 mg/kg/day weeks 16 to 32, anti-phospho Tau-Ser404 staining, vs untreated transgenic Group A
Experimental: Animal Dosing and Tissue Collection. Hemizygous transgenic female JNPL3 mice overexpressing human mutant tau protein (P301L) and wild type control mice were obtained from Taconic Farms, Inc. (model numbers 001638-T-F and 001638-W-F, respectively). The mice were 10-12 weeks of age at delivery, designated “week 1” of the study. In week 1, the mice were split into four groups: Group A (transgenic mice) received vehicle alone throughout the study; Group B (transgenic mice) received 100 mg/kg/day NAG-Bt in their food from week 1 to week 15, then were switched to 1000 mg/kg/day NAG-Bt in their drinking water from week 16 to week 32; Group D (transgenic mice) received vehicle alone from weeks 1 to 15, and then 500 mg/kg/day NAG-AE in their drinking water from weeks 16 to 32; Group E (wild-type) received vehicle alone throughout the study. In week 32, three animals per group were sacrificed and tissues were collected. Transgenic mice and controls were sacrificed using a CO2 chamber. About 45 seconds after they stopped breathing, they were perfused transcardially with 30 mL of 0.9% NaCl buffer followed by 30 mL of 4% paraformaldehyde (w/v in 1× phosphate-buffered saline, PBS, pH 7.4). The brains were then carefully dissected and post-fixed in 4% parformaldehyde before being cryoprotected in 20% sucrose (w/v in 1×PBS) for 24 hours at 4° C.
Cryostat sectioning. The brains were then mounted with optimal cutting temperature (OCT) medium (Tissue Tek) and sectioned sagittally on a Reichert-Jung Cryocut 1800 (Leica) using Feather microtome blades (Tissue Tek) at 50 μm and placed in 1×PBS for further processing. The cryostat temperature was set at −17° C. to −19° C.
Immunohistochemical Staining. Free-floating 50 μm sagittal sections (lateral about 0.6 mm from midline, Mouse Brain in Stereotaxic Coordinates, second edition, by George Paxinos and Leith B. J. Franklin) were permeabilized with 1×PBS containing 0.3% Triton X-100 for 15 min. After blocking with 10% goat serum and 2.5% BSA for 1 h at room temperature, sections were incubated with specific antibodies overnight at 4° C. (primary antibodies: anti-OGlcNAc, Covance; anti-phospho Tau-ser404, Santa Cruz). The sections then were washed three times with 0.3% Triton X-100 in PBS for 15 min each and incubated with specific secondary antibody conjugated with Cy3 or FITC for 1.5 h at room temperature in the dark. After several washes in 1×PBS, sections were mounted on slides and air-dried in the dark. Once dry, Vectashield Mounting Medium (Vector Laboratories, Inc.) was added to the slide before applying coverslips. Coverslips were sealed with clear nail enamel and slides were stored in dark at 4° C. For negative control staining, sections were incubated without primary antibodies.
Imaging. […]

[2] = Nine-month repeat dose toxicology study in mice: general observations; type: in vivo, wild-type JNPL3 mice; conditions: oral, nine months, comparatively high levels
Experimental: (§1) The toxicological effects of repeated oral administration of (3aR,5R,6S,7R,7aR)-5-(hydroxymethyl)-2-propyl-5,6,7,7a-tetrahydro-3aH-pyrano[3,2-d]thiazole-6,7-diol (NAG-Bt) and (3aR,5R,6S,7R,7aR)-2-(ethylamino)-5-(hydroxymethyl)-5,6,7,7a-tetrahydro-3aH-pyrano[3,2-d]thiazole-6,7-diol (NAG-AE) to wild-type JNPL3 mice over nine months was measured. All animals were obtained from Taconic Farms, Inc. (model number 001638-W-F), and were 10-12 weeks of age at delivery, designated “week 1” of the study. In week 1, the mice were split into three groups: Group E received vehicle alone throughout the study; Group F1 received 100 mg/kg/day NAG-Bt in their food from week 1 to week 15, then were switched to 500 mg/kg/day NAG-AE in their drinking water from week 16 to week 40; Group F2 received 100 mg/kg/day NAG-Bt in their food from week 1 to week 15 then were switched to 1000 mg/kg/day NAG-Bt in their drinking water from week 16 to week 40. […] In week 40, blood and urine samples were collected from animals in each group; the urine samples for animals in each group were pooled prior to analysis, while the blood samples were analyzed individually.

[3] = Nine-month repeat dose toxicology study in mice: hematology (CBC) and serum chemistry; type: in vivo, wild-type JNPL3 mice; conditions: oral, nine months
Experimental: as §1

[4] = Nine-month repeat dose toxicology study in mice: urinalysis; type: in vivo, wild-type JNPL3 mice; conditions: mice dosed orally nine months, week 40, pooled urine; F2: NAG-Bt 100 then 1000 mg/kg/day (n = 2); F1: NAG-Bt 100 then NAG-AE 500 mg/kg/day (n = 3)
Experimental: as §1

| Structure (SMILES) | protein O-GlcNAc modification in hippocampal brain sections [1] | tau phosphorylation and NFT formation in hippocampal brain sections [1] | toxicological consequences of long-term dosing [2] | changes in ALT, AST, or sorbitol dehydrogenase (liver toxicity) [3] | Urine Appear [4] | Urine Bilirubin [4] | Urine Blood [4] | Urine Cocci [4] | Urine Color [4] | Urine Creatinine [4] | Urine Epith [4] | Urine Glucose [4] | Urine Ketones [4] | Urine Protein [4] | Urine RBC [4] | Urine Rods [4] | Urine Sp. Grv. [4] | Urine Urobil [4] | Urine WBC [4] | Urine pH [4] |
| --- | --- | --- | --- | --- | --- | --- | --- | --- | --- | --- | --- | --- | --- | --- | --- | --- | --- | --- | --- | --- |
| CCNC1=N[C@@H]2[C@@H](O)[C@H](O)[C@@H](CO)O[C@@H]2S1 [NAG-AE, (3aR,5R,6S,7R,7aR)-2-(ethylamino)-5-(hydroxymethyl)-5,6,7,7a-tetrahydro-3aH-pyrano[3,2-d]thiazole-6,7-diol] | dramatically elevated | dramatically reduced; also recorded: significantly decreased | no serious toxicological consequences | no changes | Slcloudy | Neg | Neg | Neg | Yellow | 3105.4 | Few | Neg | Neg | Neg | Neg | Neg | 1.039 | Normal | Neg | 6 |
| CCCC1=N[C@@H]2[C@@H](O)[C@H](O)[C@@H](CO)O[C@@H]2S1 [NAG-Bt, (3aR,5R,6S,7R,7aR)-5-(hydroxymethyl)-2-propyl-5,6,7,7a-tetrahydro-3aH-pyrano[3,2-d]thiazole-6,7-diol] | dramatically elevated | dramatically reduced; also recorded: significantly decreased | no serious toxicological consequences | no changes | Clear | Neg | – | Neg | Yellow | 7790.9 | Few | Neg | Neg | Neg | Neg | Neg | 1.05 | Normal | Neg | 5 |
